Legend:
[1] = test system: phosphorylation of ERK and STAT3; test: Western blotting of ERK and STAT3 phosphorylation in hypoxic KHYG-1 cells; assay type: cell-based; details: hypoxic KHYG-1 cells pre-treated with 5 μM for 2 h
Experimental: Hypoxic KYHG-1 cells were pre-treated with 5 μM TPI-1 for 2 h, and then the cells were collected for western blotting analysis.
For western blotting, treated and untreated KHYG-1 and NK92 cells were lysed in buffer containing 50 mM Tris, 150 mM NaCl, 1% Triton X-100, 1% sodium deoxycholate, 0.1% SDS and protease inhibitors on ice for 30 min. Lysates were centrifuged at 12,000 rpm for 15 min, and supernatants were collected. Protein concentration was determined by the BCA protein assay kit (HEART Biotech, #WB003). Equal amounts of protein were loaded and separated on sodium dodecyl sulfate-polyacrylamide gel electrophoresis gel, and transferred onto a PVDF membrane (Millipore, #IPVH00010). After blocking for 1 h with 5% non-fat milk in PBS with 0.1% Tween-20 at room temperature, the membrane was incubated with primary antibody at 4° C. overnight. Immunoblots were visualized using HRP-conjugated secondary antibodies and the ECL Western Blot Detection kit (Phygene Life Sciences, #PH0353).

KHYG-1 cells = test: Flow cytometry of activating receptors on NK cell surface, KHYG-1; assay type: cell-based; details: 10 μM inhibitor for 24 h
Experimental: (§1) Hypoxia diminishes the phosphorylation level of ERK and STAT3.
(§2) The expression of NK cell cytotoxicity effector molecules and activating receptors was analyzed by flow cytometry. For membrane staining, 5×10^5 cells were collected and washed with staining buffer (PBS containing 0.1% NaN3 and 0.1% BSA) three times. The cells were then incubated for 30 min on ice, according to the instructions provided with the respective antibodies. After washing 3 times with cell stain buffer, the cells were resuspended in 300 μL staining buffer in the presence of Sytox Green or 7-AAD, which were used to gate out dead cells. Acquisition of 10,000 cells per reaction was performed using a CytoFLEX Cytometer (Beckman Coulter Life Sciences). Data were analyzed with Flowjo v7.6.2 (Tree Star). For intracellular staining, 5×10^5 cells were collected and fixed with 1 mL 1% paraformaldehyde in PBS for 15 minutes at room temperature. After washing 3 times with cell stain buffer, the fixed cells were then resuspended in 2 mL permeabilization buffer (0.1% saponin in cell staining buffer) and incubated for 30 min at room temperature. The cells were collected again by centrifugation, stained with the antibody at an optimal working concentration in permeabilization buffer for 15 min on ice. […]

NK-92 cells = test: Flow cytometry of activating receptors on NK cell surface, NK-92; assay type: cell-based; details: 10 μM inhibitor for 24 h
Experimental: as §1, §2

K562 cells = details: KHYG-1 pretreated with 10 μM for 6 h, then K562 at different E:T ratios for 4 h
Experimental: Statistical analysis showing the effects of ERK and STAT3 inhibition on NK cells cytotoxicity against K562 cells (n=3, * P<0.05, ** P<0.01). KHYG-1 cells were pretreated with 10 μM U0126 and 10 μM CPT for 6 h and then incubated with K562 at different E:T ratios for 4 h.
(e) Flow cytometric analysis of the effects of TPI-1 on the NK cell cytotoxicity. Left panel: representative flow cytometry results of TPI-1 on the cytotoxicity of KHYG-1 cells. KHYG-1 cells were pretreated with 5 μM TPI-1 for 2 h, and then incubated with K562 cells at different E:T ratios for 4 h. Right panel: statistical analysis of the effects of TPI-1 on KHYG-1 cell cytotoxicity against K562 cells (n=3, * P<0.05).
(b) Statistical analysis of the effects of knocking down SHP-1 on NK cells cytotoxicity against K562 cells (n=3, * P<0.05). […]
Prior to the assay, NK cells and tumour cells were individually pre-incubated for 24 h at 5% CO2 with 20% or 1% 02 first. […] After the 4 h incubation, samples were harvested and washed followed by a combinational staining with CD2-APC, Annexin V-FITC as well as Sytox Green, in which CD2 was used to distinguish effector from target cells, and target cell death was detected with Annexin V-FITC and Sytox Green. A minimum of 10,000 target events were collected per sample, and the results were analyzed using Flowjo v7.6.2.

DR4 = DR4 (Homo sapiens, UniProt O00220); details: surface plasmon resonance; WO 2009/077857; cited from earlier work
decoy receptor DcR1 = target: T1, decoy receptor DcR1 (Homo sapiens, UniProt O14798); details: surface plasmon resonance; WO 2009/077857; cited from earlier work
T1 sequence (O14798 26-236): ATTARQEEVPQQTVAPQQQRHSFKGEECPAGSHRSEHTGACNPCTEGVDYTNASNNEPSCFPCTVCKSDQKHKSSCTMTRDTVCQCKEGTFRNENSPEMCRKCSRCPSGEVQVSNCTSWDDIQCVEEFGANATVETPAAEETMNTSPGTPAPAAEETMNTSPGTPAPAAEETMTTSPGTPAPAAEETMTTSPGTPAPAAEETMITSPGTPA

DR5 = DR5 (Homo sapiens, UniProt O14763); details: compared with wildtype TRAIL; cited from earlier work
DcR1 = target: T2, DcR1 (Homo sapiens, UniProt O14798); details: compared with wildtype TRAIL; cited from earlier work
T2 sequence (O14798 26-236): T1 sequence (O14798 26-236)

DcR2 = target: T3, DcR2 (Homo sapiens, UniProt Q9UBN6); details: compared with wildtype TRAIL; cited from earlier work
T3 sequence (Q9UBN6 56-386): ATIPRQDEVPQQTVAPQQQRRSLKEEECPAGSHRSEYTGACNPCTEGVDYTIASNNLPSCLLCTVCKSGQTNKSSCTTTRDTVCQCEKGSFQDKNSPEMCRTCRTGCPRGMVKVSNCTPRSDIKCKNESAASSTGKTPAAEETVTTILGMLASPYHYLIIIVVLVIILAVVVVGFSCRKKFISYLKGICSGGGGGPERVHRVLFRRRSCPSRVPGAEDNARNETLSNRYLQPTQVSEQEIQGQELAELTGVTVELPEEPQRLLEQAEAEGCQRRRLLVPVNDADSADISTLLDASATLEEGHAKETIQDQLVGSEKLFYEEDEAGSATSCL

O=C1C=CC(=O)C(c2cc(Cl)ccc2Cl)=C1 [TPI-1]
phosphorylation of ERK and STAT3 [1]: reverse the decrease

N#CC(=C(/N)Sc1ccccc1N)/C(C#N)=C(\N)Sc1ccccc1N [U0126]
expression of activating receptors NKp30, NKp46 and NKG2D (KHYG-1 cells): significantly reduced
expression of activating receptors NKp46 and NKG2D (NK-92 cells): significantly reduced
NK cell cytotoxicity against cancer cells (K562 cells): significantly impaired

C[C@H]1COC2=C1C(=O)C(=O)c1c2ccc2c1CCCC2(C)C [cryptotanshinone]
NK cell cytotoxicity against cancer cells (K562 cells): significantly impaired

Wildtype TRAIL: wildtype TRAIL ligand
Kd (DR4): > 2 nM
Kd (decoy receptor DcR1): > 20 nM

B1: TRAIL variant: encoded by the wildtype TRAIL gene containing the D269H/E195R mutation, described in WO 2009/077857 (protein)
chain: MAMMEVQGGPSLGQTCVLIVIFTVLLQSLCVAVTYVYFTNELKQMQDKYSKSGIACFLKEDDSYWDPNDEESMNSPCWQVKWQLRQLVRKMILRTSEETISTVQEKQQNISPLVRERGPQRVAAHITGTRGRSNTLSSPNSKNEKALGRKINSWESSRSGHSFLSNLHLRNGELVIHEKGFYYIYSQTYFRFQERIKENTKNDKQMVQYIYKYTSYPDPILLMKSARNSCWSKDAEYGLYSIYQGGIFELKENDRIFVSVTNEHLIDMHHEASFFGAFLVG
affinity for DR5 (DR5): significantly increases
affinity for decoy receptor DcR1 (DcR1): reducing
affinity for decoy receptor DcR2 (DcR2): reducing
